This note sets out measurements from ChEMBL document CHEMBL1201862, “PubChem BioAssay data set” (2004).

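Values below derive from 48-hour exposures of cells grown in 96-well plates, with endpoints linearly interpolated between the two concentrations bracketing the appropriate inhibition level. GI50 marks 50% less growth.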 The source made the active and inactive calls. Cut-off read from the data, not from the text of the source: active = GI50 up to about 1.1 µM and inactive = higher. A value given as a limit tells only on which side of the number the result lay.

Among the test systems are BT-549; SF-268; UO-31; HCT-15; UACC-257; MDA-N; DU-145; OVCAR-8; RPMI-8226; M14; COLO 205; NCI-H226; RXF 393; A549; HOP-92; NCI-H522; OVCAR-5; PC-3; MDA-MB-435; HL-60.
Holding throughout (test): DTP human tumour cell line panel, 48 h

Regarding `O=S(=O)(c1ccc(Br)cc1)n1c2ccc(Br)cc2c2nc3ccccc3nc21`, the GI50 – broadly, the concentration at which growth is held to half of that of the control – with BT-549 was > 100 µM (inactive); in the test with SF-268 it was 85.9 µM (inactive); in the test with UO-31, > 100 µM (inactive); in the test with HCT-15, more than 100 µM; in the test on UACC-257, > 100 µM (inactive); with MDA-N, > 100 µM (inactive). For the same compound, the GI50 with DU-145 was > 100 µM (inactive); in the test on OVCAR-8 it was 55.5 µM (inactive); with RPMI-8226, > 100 µM (inactive); in the test on M14, > 100 µM (inactive); with COLO 205, > 100 µM (inactive); with NCI-H226, > 100 µM (inactive). The GI50 with RXF 393 was 20.1 µM (inactive); in the test with A549, > 100 µM (inactive); with HOP-92 it was 39.7 µM (inactive); in the test on NCI-H522, > 100 µM (inactive); in the test on OVCAR-5, > 100 µM (inactive); in the test with PC-3, > 100 µM (inactive). Besides, the GI50 in the test with MDA-MB-435 is > 100 µM (inactive).
Turning to `NCCc1nc(-c2nc(C(=O)O)cs2)cs1`, the GI50 in the test with BT-549 was > 100 µM (inactive); with HL-60 it was > 100 µM (inactive); in the test on SF-268, > 100 µM (inactive); with UO-31, > 100 µM (inactive); with HCT-15 it was more than 100 µM; in the test on UACC-257, > 100 µM (inactive). For the same compound, the GI50 with MDA-N, with DU-145, in the test on OVCAR-8, with RPMI-8226, in the test on M14 and in the test on COLO 205 was > 100 µM (inactive) in each case. Besides, the GI50 in the test on RXF 393, in the test on A549, in the test with HOP-92, in the test on NCI-H522, in the test with OVCAR-5 and in the test on PC-3 was > 100 µM (inactive) in each case. In addition, in the test on MDA-MB-435, the GI50 was > 100 µM (inactive).
With `CN(C)CCNC(=O)Cn1cc([N+](=O)[O-])c(=O)c2ccccc21`, the GI50 with BT-549 was > 100 µM (inactive); in the test on HL-60, > 100 µM (inactive); in the test with SF-268 it was > 100 µM (inactive); in the test with UO-31 it was > 100 µM (inactive); in the test on HCT-15, more than 100 µM; with UACC-257 it was > 100 µM (inactive). Also, the GI50 in the test with MDA-N, in the test with DU-145, with OVCAR-8, with M14, in the test on COLO 205 and with NCI-H226 was > 100 µM (inactive) each time. Besides, the GI50 in the test on A549, in the test with NCI-H522, in the test on OVCAR-5, in the test on PC-3 and in the test with MDA-MB-435 was > 100 µM (inactive) in each case.
As to `COc1ccccc1NCC(=O)Nn1c(C)nc2ccc(S(=O)(=O)Nc3ccccc3OC)cc2c1=O`, the GI50 was > 100 µM (inactive) with BT-549; 47.1 µM (inactive) in the test on HL-60; > 100 µM (inactive) in the test with SF-268; > 100 µM (inactive) with UO-31; 56.1 µM in the test with HCT-15; > 100 µM (inactive) in the test with UACC-257. For the same compound, the GI50 with MDA-N is 29.7 µM (inactive); in the test on DU-145 it was > 100 µM (inactive); in the test with OVCAR-8 it was > 100 µM (inactive); in the test on RPMI-8226, > 100 µM (inactive); in the test with M14, > 100 µM (inactive); in the test with COLO 205 it was > 100 µM (inactive). The GI50 with NCI-H226 was > 100 µM (inactive); with A549 it was 97.5 µM (inactive); in the test with HOP-92, > 100 µM (inactive); in the test with NCI-H522, 35.6 µM (inactive); with OVCAR-5, > 100 µM (inactive); with PC-3 it was 88.5 µM (inactive). For the same compound, the GI50 in the test on MDA-MB-435 was 26.7 µM (inactive).
Regarding `CCCC1CC(=O)NC(=O)C1C(=O)OC(C)(C)C` (configuration not stated), the GI50 is > 100 µM (inactive) in the test on BT-549; > 100 µM (inactive) in the test on HL-60; > 100 µM (inactive) with SF-268; > 100 µM (inactive) with UO-31; more than 100 µM in the test on HCT-15; > 100 µM (inactive) in the test on UACC-257. Further, the GI50 in the test with MDA-N, in the test with DU-145, in the test with OVCAR-8, in the test on RPMI-8226, in the test with COLO 205 and in the test on NCI-H226 was > 100 µM (inactive) each time. Moreover, the GI50 in the test with RXF 393, in the test with NCI-H522, in the test on OVCAR-5, in the test on PC-3 and in the test with MDA-MB-435 was > 100 µM (inactive) each time.
As to `O=C(O)c1ccc(S(=O)(=O)c2ccccc2[N+](=O)[O-])cc1`, the GI50 is > 10 µM (inactive) in the test with BT-549; > 10 µM (inactive) with HL-60; > 10 µM (inactive) in the test with SF-268; more than 10 µM in the test on HCT-15; > 10 µM (inactive) in the test with UACC-257; > 10 µM (inactive) with MDA-N. Besides, the GI50 with DU-145, with OVCAR-8, in the test with RPMI-8226, with M14, in the test with COLO 205 and in the test with NCI-H226 was > 10 µM (inactive) each time. Also, the GI50 in the test with RXF 393, in the test with A549, in the test on NCI-H522, in the test with OVCAR-5, in the test on PC-3 and in the test with MDA-MB-435 was > 10 µM (inactive) in each case.
As to `CCCCN1C(=O)C2Cc3c([nH]c4ccccc34)C(c3cccc(O)c3)N2C1=O` (configuration not stated), the GI50 in the test with BT-549 was 19 µM (inactive); in the test with HL-60, 22.8 µM (inactive); with SF-268 it was 19.1 µM (inactive); in the test on UO-31, 17.5 µM (inactive); in the test on HCT-15, 18.7 µM; in the test with UACC-257 it was 18.7 µM (inactive). The GI50 was 19.2 µM (inactive) with MDA-N; 18.6 µM (inactive) in the test on DU-145; 18.9 µM (inactive) in the test on OVCAR-8; 23.1 µM (inactive) in the test with RPMI-8226; 18.3 µM (inactive) in the test with M14; 19.6 µM (inactive) in the test on COLO 205. For the same compound, the GI50 with NCI-H226 was 21.5 µM (inactive); with A549, 18.4 µM (inactive); in the test on HOP-92, 19.2 µM (inactive); in the test with NCI-H522 it was 20 µM (inactive); in the test on OVCAR-5, 18.8 µM (inactive); with PC-3, 18.5 µM (inactive). Further, the GI50 with MDA-MB-435 is 17.3 µM (inactive).
Consider `O=C1c2sc(-c3ccc(Cl)cc3)cc2-n2cccc21`, for which the GI50 in the test on BT-549 was > 100 µM (inactive); with SF-268, > 100 µM (inactive); with UO-31, > 100 µM (inactive); with HCT-15 it was more than 100 µM; in the test with UACC-257, > 100 µM (inactive); in the test on MDA-N, > 100 µM (inactive). Also, the GI50 in the test on DU-145, in the test with OVCAR-8, in the test on RPMI-8226, in the test with M14, in the test on COLO 205 and with NCI-H226 was > 100 µM (inactive) throughout. In addition, the GI50 in the test on RXF 393, in the test on A549, with NCI-H522, in the test on OVCAR-5, in the test with PC-3 and with MDA-MB-435 was > 100 µM (inactive) throughout.
For the compound `C=C(C)C1Cc2c(cc3c(c2O)c(=O)c2ccccc2n3C)O1` (configuration not stated), the GI50 in the test with BT-549 was 1.72 µM (inactive); in the test with HL-60, 2.77 µM (inactive); in the test with SF-268, 2.48 µM (inactive); in the test on UO-31 it was 1.84 µM (inactive); in the test on HCT-15 it was 2.75 µM; in the test with UACC-257, 15.8 µM (inactive). Besides, the GI50 is 3.2 µM (inactive) with MDA-N; > 10 µM (inactive) in the test with DU-145; 1.84 µM (inactive) in the test with OVCAR-8; 2.06 µM (inactive) with RPMI-8226; 3 µM (inactive) with M14; 5.75 µM (inactive) in the test with COLO 205. In addition, the GI50 in the test on NCI-H226 was 2.41 µM (inactive); in the test with RXF 393, 2.75 µM (inactive); in the test with A549, 6.62 µM (inactive); in the test with HOP-92, 7.67 µM (inactive); in the test with OVCAR-5, 13.3 µM (inactive); in the test with PC-3 it was 5.71 µM (inactive). Moreover, the GI50 in the test with MDA-MB-435 is 5.78 µM (inactive).
As to `Cc1cccc(Nc2cn(COCc3ccccc3)c(=O)[nH]c2=O)c1`, the GI50 was 69.2 µM (inactive) in the test on BT-549; > 100 µM (inactive) in the test on HL-60; 50 µM (inactive) in the test with SF-268; > 100 µM (inactive) in the test with UO-31; more than 100 µM in the test with HCT-15; > 100 µM (inactive) in the test with UACC-257. In addition, the GI50 in the test with MDA-N was > 100 µM (inactive); in the test on DU-145 it was > 100 µM (inactive); in the test with RPMI-8226, 38.8 µM (inactive); in the test on M14, > 100 µM (inactive); in the test on COLO 205, 84.1 µM (inactive); in the test with RXF 393, 56 µM (inactive). Also, the GI50 in the test on A549 is > 100 µM (inactive); in the test with HOP-92, > 100 µM (inactive); in the test on NCI-H522, 10.2 µM (inactive); in the test on OVCAR-5 it was > 100 µM (inactive); with PC-3, > 100 µM (inactive); in the test on MDA-MB-435, > 100 µM (inactive).
For `Cc1cc(O)nc2c3c(ccc12)OC(C)(C)C=C3`, the GI50 with BT-549 was 36.6 µM (inactive); in the test with HL-60, 0.43 µM (active); in the test with SF-268, 6.7 µM (inactive); in the test with UO-31, 8.18 µM (inactive); in the test with HCT-15, 4.85 µM; in the test on UACC-257, > 25.3 µM (inactive). Besides, the GI50 with MDA-N is 2.08 µM (inactive); with DU-145 it was 3.58 µM (inactive); in the test on OVCAR-8 it was 7.59 µM (inactive); in the test with RPMI-8226 it was 4.47 µM (inactive); in the test on M14, 5.53 µM (inactive); in the test with COLO 205, 2.89 µM (inactive). Besides, the GI50 with RXF 393 is 5.25 µM (inactive); with A549, 7.33 µM (inactive); in the test with HOP-92 it was > 100 µM (inactive); with NCI-H522, 6.67 µM (inactive); with OVCAR-5 it was 9.62 µM (inactive); in the test on PC-3, 5.9 µM (inactive). Also, the GI50 in the test with MDA-MB-435 is 1.82 µM (inactive).
